Source: PubChem BioAssay AID256 (DTP/NCI, 2004)
Several values for one entry are separate records, joined by “and”; a condition that tells them apart may be missing. Equal entries are not always repeated. Inconclusive results and toxic doses are left out.

Test system: CD2F1 mice, L1210 leukemia ip, survival T/C
Assay: NCI In Vivo Anticancer Drug Screen. Data for tumor model L1210 Leukemia (intraperitoneal) in CD2F1 (CDF1) mice
Conditions: higher = longer survival
Summary of the method: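 In this screen, transplantable tumors were grown in mice given either the compound or its vehicle. Results were expressed as the treated measurement relative to the control measurement.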

[1] = endpoint: mean survival time, dose: 100.0 mg/kg/injection, schedule: Q04DX003 (ip), vehicle: saline with Tween-80
[2] = endpoint: mean survival time, dose: 200.0 mg/kg/injection, schedule: Q04DX003 (ip), vehicle: saline with Tween-80
[3] = endpoint: mean survival time, dose: 400.0 mg/kg/injection, schedule: Q04DX003 (ip), vehicle: saline with Tween-80
[4] = endpoint: mean survival time, dose: 100.0 mg/kg/injection, schedule: Q01DX009 (ip), vehicle: saline with Tween-80
[5] = endpoint: mean survival time, dose: 200.0 mg/kg/injection, schedule: Q01DX009 (ip), vehicle: saline with Tween-80
[6] = endpoint: mean survival time, dose: 400.0 mg/kg/injection, schedule: Q01DX009 (ip), vehicle: saline with Tween-80
[7] = endpoint: mean survival time, dose: 100.0 mg/kg/injection, schedule: Q01DX001 (ip), vehicle: saline with Tween-80
[8] = endpoint: mean survival time, dose: 200.0 mg/kg/injection, schedule: Q01DX001 (ip), vehicle: saline with Tween-80
[9] = endpoint: mean survival time, dose: 400.0 mg/kg/injection, schedule: Q01DX001 (ip), vehicle: saline with Tween-80
[10] = endpoint: mean survival time, dose: 25.0 mg/kg/injection, schedule: Q01DX009 (ip), vehicle: saline with Tween-80
[11] = endpoint: mean survival time, dose: 50.0 mg/kg/injection, schedule: Q01DX009 (ip), vehicle: saline with Tween-80
[12] = endpoint: mean survival time, dose: 25.0 mg/kg/injection, schedule: Q04DX002 (ip), vehicle: saline with Tween-80
[13] = endpoint: mean survival time, dose: 50.0 mg/kg/injection, schedule: Q04DX002 (ip), vehicle: saline with Tween-80
[14] = endpoint: mean survival time, dose: 100.0 mg/kg/injection, schedule: Q04DX002 (ip), vehicle: saline with Tween-80
[15] = endpoint: mean survival time, dose: 400.0 mg/kg/injection, schedule: Q04DX002 (ip), vehicle: saline with Tween-80
[16] = endpoint: mean survival time, dose: 6.25 mg/kg/injection, schedule: Q04DX002 (ip), vehicle: saline with Tween-80

Cc1[nH]c2ccccc2c1C1=CC(=O)c2ccccc2C1=O
T/C [1]: 106 % of control
T/C [2]: 104 % of control
T/C [3]: 104 % of control

CC/C=C(\CC(=O)OCC)C(=O)OCC
T/C [1]: 102 % of control
T/C [2]: 106 % of control
T/C [3]: 101 % of control

Nc1cccc(C(=O)O)c1
T/C [1]: 95 % of control
T/C [2]: 94 % of control
T/C [3]: 94 % of control

O=C(O)CCCCc1ccccc1
T/C [4]: 93 % of control
T/C [1]: 106 % of control
T/C [5]: 98 % of control
T/C [2]: 92 % of control
T/C [6]: 102 % of control
T/C [3]: 106 % of control

Cc1cccc(/C=C2\Cc3ccccc3C2=O)c1
T/C [7]: 103 % of control
T/C [8]: 95 % of control
T/C [9]: 103 % of control

Cn1ccn(C2CCCCC2)c1=O
T/C [10]: 98 % of control
T/C (endpoint: mean survival time, dose: 25.0 mg/kg/injection, schedule: Q04DX003 (ip), vehicle: saline with Tween-80): 96 % of control
T/C [11]: 101 % of control
T/C (endpoint: mean survival time, dose: 50.0 mg/kg/injection, schedule: Q04DX003 (ip), vehicle: saline with Tween-80): 100 % of control
T/C [4]: 95 % of control
T/C [1]: 91 % of control and 93 % of control

CCNC(C)(C)C(SSSC(c1ccc(Cl)cc1)C(C)(C)NCC)c1ccc(Cl)cc1 (configuration not stated)
T/C (endpoint: mean survival time, dose: 100.0 mg/kg/injection, schedule: Q04DX003 (ip), vehicle: saline): 109 % of control
T/C (endpoint: mean survival time, dose: 200.0 mg/kg/injection, schedule: Q04DX003 (ip), vehicle: saline): 86 % of control

CCOc1cc2ccc3c4cc(OC)c(OC)cc4c[n+](C)c3c2cc1OCC
T/C [12]: 107 % of control
T/C [13]: 111 % of control
T/C [14]: 103 % of control

CN(C)c1ccc(/C=C(\C#N)c2ccc(Cl)cc2)c(Cl)c1
T/C [4]: 90 % of control
T/C [1]: 86 % of control
T/C [5]: 94 % of control
T/C [2]: 89 % of control
T/C [6]: 90 % of control
T/C [3]: 86 % of control

CC(=O)Nc1cc(NC(C)=O)cc(N(CCCl)CCCl)c1
T/C (endpoint: mean survival time, dose: 12.5 mg/kg/injection, schedule: Q01DX005 (ip), vehicle: water): 100 % of control
T/C (endpoint: mean survival time, dose: 25.0 mg/kg/injection, schedule: Q01DX005 (ip), vehicle: water): 106 % of control
T/C (endpoint: mean survival time, dose: 50.0 mg/kg/injection, schedule: Q01DX005 (ip), vehicle: water): 101 % of control

Nc1cccc2sccc12
T/C (endpoint: mean survival time, dose: 100.0 mg/kg/injection, schedule: Q04DX003 (ip), vehicle: other): 106 % of control
T/C (endpoint: mean survival time, dose: 200.0 mg/kg/injection, schedule: Q04DX003 (ip), vehicle: other): 113 % of control
T/C (endpoint: mean survival time, dose: 400.0 mg/kg/injection, schedule: Q04DX003 (ip), vehicle: other): 101 % of control

COc1cc2c[n+](C)c3c(c2cc1OC)Cc1cc2c(cc1-3)OCO2
T/C (endpoint: median survival time, dose: 6.0 mg/kg/injection, schedule: Q01DX009 (ip), vehicle: saline with Tween-80): 122 % of control
T/C (endpoint: median survival time, dose: 25.0 mg/kg/injection, schedule: Q01DX009 (ip), vehicle: saline with Tween-80): 152 % of control and 162 % of control
T/C (endpoint: median survival time, dose: 50.0 mg/kg/injection, schedule: Q01DX009 (ip), vehicle: saline with Tween-80): 164 % of control and 168 % of control
T/C (endpoint: median survival time, dose: 100.0 mg/kg/injection, schedule: Q01DX009 (ip), vehicle: saline with Tween-80): 94 % of control

NC(C(=O)O)=C(c1ccccc1)c1ccccc1
T/C [14]: 98 % of control
T/C (endpoint: mean survival time, dose: 200.0 mg/kg/injection, schedule: Q04DX002 (ip), vehicle: saline with Tween-80): 102 % of control
T/C [15]: 102 % of control

Nc1ccc(-c2c(N)ncc3ccccc23)cc1
T/C (endpoint: mean survival time, dose: 50.0 mg/kg/injection, schedule: Q04DX003 (ip), vehicle: DMSO): 101 % of control

S=C(Oc1ccc(Cl)cc1)Sc1ccc(Cl)cc1
T/C (endpoint: mean survival time, dose: 100.0 mg/kg/injection, schedule: Q04DX002 (ip), vehicle: Klucel (hydroxypropylcellulose) (HPC)): 101 % of control
T/C (endpoint: mean survival time, dose: 200.0 mg/kg/injection, schedule: Q04DX002 (ip), vehicle: Klucel (hydroxypropylcellulose) (HPC)): 89 % of control
T/C (endpoint: mean survival time, dose: 400.0 mg/kg/injection, schedule: Q04DX002 (ip), vehicle: Klucel (hydroxypropylcellulose) (HPC)): 97 % of control

CC1CCC(N=C2OCCN2N=O)CC1 (configuration not stated)
T/C (endpoint: mean survival time, dose: 3.12 mg/kg/injection, schedule: Q01DX001 (ip), vehicle: water): 97 % of control
T/C (endpoint: mean survival time, dose: 6.25 mg/kg/injection, schedule: Q01DX001 (ip), vehicle: water): 96 % of control
T/C (endpoint: mean survival time, dose: 12.5 mg/kg/injection, schedule: Q01DX001 (ip), vehicle: water): 98 % of control
T/C (endpoint: mean survival time, dose: 25.0 mg/kg/injection, schedule: Q01DX001 (ip), vehicle: water): 94 % of control
T/C (endpoint: mean survival time, dose: 50.0 mg/kg/injection, schedule: Q01DX001 (ip), vehicle: water): 94 % of control
T/C (endpoint: mean survival time, dose: 100.0 mg/kg/injection, schedule: Q01DX001 (ip), vehicle: water): 108 % of control

[B-][N+](C)(C)Cc1ccccc1
T/C [10]: 94 % of control
T/C [11]: 88 % of control
T/C [7]: 101 % of control

CC(/C=N/O)=N\O.CC(/C=N/O)=N\O.[Pd]
T/C (endpoint: mean survival time, dose: 1.56 mg/kg/injection, schedule: Q01DX009 (ip), vehicle: saline with Tween-80): 98 % of control
T/C (endpoint: mean survival time, dose: 1.56 mg/kg/injection, schedule: Q04DX002 (ip), vehicle: saline with Tween-80): 100 % of control
T/C (endpoint: mean survival time, dose: 3.13 mg/kg/injection, schedule: Q01DX009 (ip), vehicle: saline with Tween-80): 95 % of control
T/C (endpoint: mean survival time, dose: 3.13 mg/kg/injection, schedule: Q04DX002 (ip), vehicle: saline with Tween-80): 95 % of control
T/C [16]: 88 % of control
T/C [12]: 102 % of control

CC(C)OC(=O)N1C(=O)C2C3CCC(O3)C2C1=O (configuration not stated)
T/C [10]: 105 % of control
T/C [12]: 101 % of control
T/C [11]: 97 % of control
T/C [13]: 101 % of control
T/C [4]: 97 % of control
T/C [14]: 106 % of control
T/C [15]: 97 % of control

O=CCCNP(=O)(OCc1ccccc1)N(CCCl)CCCl (configuration not stated)
T/C (endpoint: mean survival time, dose: 13.13 mg/kg/injection, schedule: Q01DX001 (ip), vehicle: DMSO): 103 % of control
T/C (endpoint: mean survival time, dose: 26.25 mg/kg/injection, schedule: Q01DX001 (ip), vehicle: DMSO): 98 % of control
T/C (endpoint: mean survival time, dose: 52.5 mg/kg/injection, schedule: Q01DX001 (ip), vehicle: DMSO): 103 % of control
T/C (endpoint: mean survival time, dose: 105.0 mg/kg/injection, schedule: Q01DX001 (ip), vehicle: DMSO): 104 % of control
T/C (endpoint: mean survival time, dose: 210.0 mg/kg/injection, schedule: Q01DX001 (ip), vehicle: DMSO): 101 % of control
T/C (endpoint: mean survival time, dose: 420.0 mg/kg/injection, schedule: Q01DX001 (ip), vehicle: DMSO): 101 % of control
T/C (endpoint: mean survival time, dose: 840.0 mg/kg/injection, schedule: Q01DX001 (ip), vehicle: DMSO): 101 % of control

C/C=C/CC1(Cc2ccccc2)C(=O)NC(=S)NC1=O
T/C (endpoint: mean survival time, dose: 9.5 mg/kg/injection, schedule: Q01DX001 (ip), vehicle: other): 108 % of control
T/C (endpoint: mean survival time, dose: 19.0 mg/kg/injection, schedule: Q01DX001 (ip), vehicle: other): 111 % of control

CN1C(=O)CC(c2ccc(N3C(=O)C=CC3=O)cc2)C1=O (configuration not stated)
T/C [16]: 96 % of control
T/C (endpoint: mean survival time, dose: 12.5 mg/kg/injection, schedule: Q04DX002 (ip), vehicle: saline with Tween-80): 103 % of control
T/C [12]: 96 % of control

NC(CCC(=O)NC(CS)C(=O)NCC(=O)O)C(=O)O (configuration not stated)
T/C (endpoint: median survival time, dose: 25.0 mg/kg/injection, schedule: Q01DX009 (ip), vehicle: saline): 100 % of control
T/C (endpoint: median survival time, dose: 50.0 mg/kg/injection, schedule: Q01DX009 (ip), vehicle: saline): 110 % of control
T/C (endpoint: median survival time, dose: 100.0 mg/kg/injection, schedule: Q01DX009 (ip), vehicle: saline): 104 % of control
T/C (endpoint: median survival time, dose: 200.0 mg/kg/injection, schedule: Q01DX009 (ip), vehicle: saline): 104 % of control
T/C (endpoint: median survival time, dose: 400.0 mg/kg/injection, schedule: Q01DX009 (ip), vehicle: saline): 94 % of control

N#Cc1cccnc1.NCCNCCN.[Br-].[Pt+4]
T/C (endpoint: mean survival time, dose: 12.5 mg/kg/injection, schedule: Q01DX009 (ip), vehicle: saline): 95 % of control
T/C (endpoint: mean survival time, dose: 25.0 mg/kg/injection, schedule: Q01DX009 (ip), vehicle: saline): 103 % of control
T/C (endpoint: mean survival time, dose: 50.0 mg/kg/injection, schedule: Q01DX009 (ip), vehicle: saline): 101 % of control
T/C (endpoint: mean survival time, dose: 100.0 mg/kg/injection, schedule: Q01DX009 (ip), vehicle: saline): 98 % of control
T/C (endpoint: mean survival time, dose: 200.0 mg/kg/injection, schedule: Q01DX009 (ip), vehicle: saline): 98 % of control

O=C(NC(=O)c1ccccc1)NS(=O)(=O)c1ccccc1
T/C [4]: 113 % of control
T/C [5]: 109 % of control
T/C [6]: 98 % of control

COC(=O)CC1(C(=O)OC)Nc2cc(Cl)c(Cl)cc2S(=O)(=O)N1O (configuration not stated)
T/C [7]: 106 % of control
T/C [8]: 94 % of control
T/C [9]: 94 % of control
